Data set [1] in a line: Cmax in C57BL6 mouse plasma at 0.3 mg/kg, po by LC-MS/MS analysis. Type of data set: ADME, organism-based. More on the design: dose 0.3 mg/kg, route oral.
Data set [2] deals with T1, Cannabinoid receptor 1 (Homo sapiens, UniProt P21554). As to the kind of experiment: Inverse agonist activity at human CB1 receptor expressed in CHOK1 cells co-expressing Galphaq16 assessed as apparent equilibrium constant after 90 secs by […]-4 AM dye-based FLIPR assay. Format: cell-based.
Data set [3] deals with T1, Cannabinoid receptor 1. Kind of data set: Displacement of [3H]-CP55940 from human CB1 receptor expressed in CHO cell membranes. In general terms: In a radioligand displacement assay an active substance lowers the binding of a labelled ligand.
The species entered for the next data set is Homo sapiens. Kind of data set: Selectivity ratio of Ki for displacement of [3H]-CP55940 from human CB2 receptor expressed in CHO cell membranes to Ki for displacement of [3H]-CP55940 from human CB1 receptor expressed in CHO cell membranes.
The target of the next data set is Cannabinoid receptor 2 (Homo sapiens, UniProt P34972). Kind of data set: Displacement of [3H]-CP55940 from human CB2 receptor expressed in CHO cell membranes.
Sequence of Cannabinoid receptor 2 (P34972 whole entry): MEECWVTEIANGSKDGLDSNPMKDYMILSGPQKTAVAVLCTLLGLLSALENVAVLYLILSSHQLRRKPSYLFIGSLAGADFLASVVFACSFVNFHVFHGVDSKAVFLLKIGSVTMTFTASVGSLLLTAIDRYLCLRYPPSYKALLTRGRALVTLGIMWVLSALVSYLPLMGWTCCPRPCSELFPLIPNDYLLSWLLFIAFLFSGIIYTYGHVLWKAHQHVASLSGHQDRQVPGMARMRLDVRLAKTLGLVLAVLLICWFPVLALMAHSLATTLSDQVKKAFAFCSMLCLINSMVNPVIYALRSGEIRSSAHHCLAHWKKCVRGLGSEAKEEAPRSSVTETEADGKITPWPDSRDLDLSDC
Data set [4] in a line: Drug uptake in C57BL6 mouse brain at […], po by LC-MS/MS analysis. Type of data set: ADME, organism-based. Particulars: in vivo.
Data set [5] in a line: Lipophilicity, log D of compound. Type of data set: physicochemical. Particulars: octanol/water.
Data set [6] in a line: Cmax in C57BL6 mouse plasma at […], po by LC-MS/MS analysis. Type of data set: ADME, organism-based. More on the design: dose 2.5 mg/kg, route oral.
A short description of data set [7]: Intrinsic clearance in human liver microsomes at 1 uM incubated for up to 120 mins by mass mass spectrometric method. Format: ADME, Microsome. Particulars: microsomes, 2 h, 1 µM. On the technique in general: Liver microsomes are a subcellular fraction often used to study metabolism.
A short description of data set [8]: Half life in human liver microsomes at 1 uM by mass mass spectrometric method. Type of data set: ADME, Microsome. Particulars: microsomes, 1 µM.
Data set [9] can be described thus: Permeability across apical to basolateral side in MDCK-MDR1 cells at 10 uM incubated for 1 hr by mass spectrometric method. Type of data set: ADME, cell-based, Canis lupus familiaris. Particulars: dog, mdck-mdr1, 1 h.
A short description of data set [10]: Ratio of Cmax in brain to plasma in C57BL6 mouse at […], po by LC-MS/MS analysis. Type of data set: ADME, organism-based.
Data set [11] is described as follows: Half life in C57BL6 mouse plasma at […], po by LC-MS/MS analysis. Type of data set: ADME, organism-based.

T1 sequence (P21554 whole entry): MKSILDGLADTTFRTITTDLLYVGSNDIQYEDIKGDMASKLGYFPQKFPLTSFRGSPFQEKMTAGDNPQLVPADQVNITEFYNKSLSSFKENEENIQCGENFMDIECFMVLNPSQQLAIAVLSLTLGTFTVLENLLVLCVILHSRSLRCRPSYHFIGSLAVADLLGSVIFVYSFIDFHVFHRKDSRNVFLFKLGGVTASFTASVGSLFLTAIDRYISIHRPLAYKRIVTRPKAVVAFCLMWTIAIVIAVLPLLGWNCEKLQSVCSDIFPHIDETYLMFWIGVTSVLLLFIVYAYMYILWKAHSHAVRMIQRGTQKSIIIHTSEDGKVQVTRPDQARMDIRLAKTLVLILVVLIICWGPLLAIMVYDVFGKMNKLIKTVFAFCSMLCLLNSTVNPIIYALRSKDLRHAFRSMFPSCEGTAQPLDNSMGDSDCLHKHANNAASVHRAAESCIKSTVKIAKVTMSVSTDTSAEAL

Consider `O=S(=O)(NC1CCCCC1)NC1CCN(c2ncnc3c2nc(-c2ccccc2Cl)n3-c2ccc(Cl)cc2)CC1`, for which the concentration in data set [1] peaked (Cmax) at 4 ng/mL. Further, the Ke(app) at Cannabinoid receptor 1 [2] is 8 nM. In addition, the Ki is 5 nM at Cannabinoid receptor 1 [3] and 330 nM at Cannabinoid receptor 2. Moreover, the Ratio Ki in the data set filed under Homo sapiens worked out at 66.
In turn, `N=C(NC1CCN(c2ncnc3c2nc(-c2ccccc2Cl)n3-c2ccc(Cl)cc2)CC1)c1ccc(F)cc1` returned a Drug uptake in data set [4] below 20%. In addition, at Cannabinoid receptor 1 [2], the Ke(app) was 170 nM. At Cannabinoid receptor 1 [3], this molecule registered a Ki of 780 nM. For the same molecule, the logD in [5] turned out to be 4.1. Also, in data set [6], the highest level (Cmax) was 50 ng/mL. Also, the Ratio Ki in the data set filed under Homo sapiens was above 7. Moreover, in [7], the CLH worked out at 8 µL/min/mg. For the same molecule, the t1/2 in data set [8] turned out to be 166 min. This molecule registered a permeability in data set [9] of 0.2%. Also, in [10], the Ratio came to 0.16. Besides, in data set [11], the half-life was 360 min.

Broadly, the Cmax is the peak of the concentration-time curve. A word on the Ki: it is the dissociation constant of the complex between target and ligand, obtained from inhibition or displacement. Lower therefore signals tighter binding. For orientation: logD means the decadic logarithm of the distribution of all forms, ionised or not, between an organic phase and buffer at a given pH. The low end stands for a more hydrophilic compound, the high end for a more lipophilic compound. Usually half-life stands for the time needed for the level to fall by half in the phase considered. Higher therefore signals slow loss.

These data come from ChEMBL document CHEMBL4385641 (Bioorg Med Chem, 2019).
